Source: paper PMC10837223, “Acute antiarrhythmic effects of SGLT2 inhibitors–dapagliflozin lowers the excitability of atrial cardiomyocytes” (Basic Research in Cardiology, 2024)

Target: T1, NaV1.5 (Homo sapiens, UniProt Q14524, Y1767A)
T1 construct: gene SCN5A
Test: cell-based
Conditions: CHO, read-out: % reduction at 100 μmol/L

T1 sequence (Q14524 whole entry Y1767A): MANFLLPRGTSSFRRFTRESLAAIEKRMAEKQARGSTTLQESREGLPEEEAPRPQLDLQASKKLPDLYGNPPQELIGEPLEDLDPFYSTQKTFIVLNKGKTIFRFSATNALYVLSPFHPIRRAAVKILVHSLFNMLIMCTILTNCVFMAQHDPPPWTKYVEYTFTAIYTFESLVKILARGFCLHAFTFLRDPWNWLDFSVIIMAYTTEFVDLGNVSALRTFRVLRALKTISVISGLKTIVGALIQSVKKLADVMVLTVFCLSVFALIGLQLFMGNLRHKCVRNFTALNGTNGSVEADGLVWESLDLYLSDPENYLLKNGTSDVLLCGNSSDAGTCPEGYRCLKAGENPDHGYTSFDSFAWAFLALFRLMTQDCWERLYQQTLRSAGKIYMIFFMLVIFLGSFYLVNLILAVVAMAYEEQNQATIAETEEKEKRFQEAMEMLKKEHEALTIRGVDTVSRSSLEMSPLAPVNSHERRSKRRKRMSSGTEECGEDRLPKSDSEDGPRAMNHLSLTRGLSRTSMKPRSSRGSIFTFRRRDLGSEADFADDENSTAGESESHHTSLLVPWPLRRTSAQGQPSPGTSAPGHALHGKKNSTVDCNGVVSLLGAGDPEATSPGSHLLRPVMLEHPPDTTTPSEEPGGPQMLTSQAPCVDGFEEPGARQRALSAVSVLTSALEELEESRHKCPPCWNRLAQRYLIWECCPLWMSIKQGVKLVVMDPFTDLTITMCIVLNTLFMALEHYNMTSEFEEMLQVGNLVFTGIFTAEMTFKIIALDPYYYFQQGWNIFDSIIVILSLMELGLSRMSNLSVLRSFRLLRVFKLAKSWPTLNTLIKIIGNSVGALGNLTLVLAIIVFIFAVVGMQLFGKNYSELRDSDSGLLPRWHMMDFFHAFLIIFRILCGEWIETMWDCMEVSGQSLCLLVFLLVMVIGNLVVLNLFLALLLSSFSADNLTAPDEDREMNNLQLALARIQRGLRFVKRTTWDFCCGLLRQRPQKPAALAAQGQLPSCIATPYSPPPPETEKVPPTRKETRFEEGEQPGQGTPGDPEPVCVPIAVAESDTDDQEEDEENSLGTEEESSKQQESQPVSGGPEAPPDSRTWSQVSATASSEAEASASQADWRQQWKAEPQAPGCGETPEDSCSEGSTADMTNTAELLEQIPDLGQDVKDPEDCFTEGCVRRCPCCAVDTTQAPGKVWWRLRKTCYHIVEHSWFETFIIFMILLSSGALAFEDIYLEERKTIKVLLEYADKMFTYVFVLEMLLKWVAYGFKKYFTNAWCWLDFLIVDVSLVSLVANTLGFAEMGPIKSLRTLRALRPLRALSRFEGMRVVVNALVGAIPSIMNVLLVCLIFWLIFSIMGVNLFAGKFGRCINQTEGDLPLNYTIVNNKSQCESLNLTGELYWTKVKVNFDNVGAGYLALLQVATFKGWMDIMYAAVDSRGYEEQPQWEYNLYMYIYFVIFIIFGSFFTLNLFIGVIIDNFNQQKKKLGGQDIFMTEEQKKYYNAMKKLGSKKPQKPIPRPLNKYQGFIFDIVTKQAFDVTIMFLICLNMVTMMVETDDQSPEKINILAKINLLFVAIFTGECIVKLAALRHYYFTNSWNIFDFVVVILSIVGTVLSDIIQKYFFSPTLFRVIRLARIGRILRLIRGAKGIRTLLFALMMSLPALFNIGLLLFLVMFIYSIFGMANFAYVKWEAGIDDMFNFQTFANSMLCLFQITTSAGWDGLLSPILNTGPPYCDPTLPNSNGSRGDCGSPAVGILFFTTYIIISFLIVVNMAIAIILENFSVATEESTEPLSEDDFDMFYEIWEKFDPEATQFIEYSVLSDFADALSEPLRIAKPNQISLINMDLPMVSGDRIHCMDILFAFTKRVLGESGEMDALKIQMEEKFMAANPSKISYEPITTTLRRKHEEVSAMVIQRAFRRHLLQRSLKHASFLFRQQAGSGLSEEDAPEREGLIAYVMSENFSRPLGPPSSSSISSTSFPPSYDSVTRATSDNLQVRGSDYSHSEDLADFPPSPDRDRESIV

SMILES: CCOc1ccc(Cc2cc([C@@H]3O[C@H](CO)[C@@H](O)[C@H](O)[C@H]3O)ccc2Cl)cc1 [dapagliflozin]
- inhibition at 100 µM: 68.3 ± 4.2%
